Measurements: US20110039873A1, “SUBSTITUTED PYRAZOLO[1,5-a] PYRIDINE COMPOUNDS HAVING MULTI-TARGET ACTIVITY” (priority 2009, published 2011)
Where two headings read alike, the source gives them in different places.

Legend:
[1] = target: T1, catalytic domain of phosphodiesterase 4B enzyme cloned from human brain (Homo sapiens, UniProt Q07343); experiment: PDE4 inhibition assay (PDELight); type: biochemical; settings: for IC50: 5 uM cAMP, read-out: PDE 4 Inhibition (IC50 in μM)
T1 construct: the catalytic domain of phosphodiesterase 4B enzyme; purchased Scottish Biomedical
Method in brief: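 Human PDE4B catalytic domain (40 mU/well) incubated with 5 uM cAMP. AMP formed was converted to ATP and measured by luciferase luminescence (PDELight). IC50 derived by nonlinear regression curve fit.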

[2] = system: phosphorylated c-Jun (serine-73); experiment: Phosphorylated c-JUN (A-beta), SH-SY5Y; type: cell-based; settings: Homo sapiens
Method: In 96-well plates either human SH-SY5Y neuroblastoma cells at 2.5×10^4 cells/well or E18 rat neuronal cells at 1.5×10^4 cells/well were seeded. […] Supernatant was discarded and cells were fixed with 4% paraformaldehyde (100 ul/well) for 20 minutes. FACE cell based ELISA assay (Active Motif) was performed specific for quantifying phosphorlyated c-Jun (serine-73).

[3] = target: T2, recombinant human phosphodiesterase 10A1 enzyme (Homo sapiens, UniProt Q9Y233); experiment: PDE10 inhibition assay (PDELight); type: biochemical; settings: for IC50: 1 uM cAMP, read-out: PDE 10 Inhibition (IC50 in μM); for PDE-10 inhibition (in words): Table 2
T2 construct: purchased BPS Biosciences; host or cells: Baculovirus infected Sf9 cells

[4] = system: Mouse BV-2 microglial cells; experiment: BV-2 glial cell assay (TNF-α and MCP-1 by Luminex); type: cell-based; settings: for EC50: Mus musculus, BV-2, LPS and IFN-γ activated, 20 hours; for inhibiting glial cell activation (TNF-α and/or MCP-1): Table 3
Method: Mouse BV-2 microglial cells were seeded on 96-well plates at a concentration of 3×10^4 cells/well. Cells were activated with 100 ng/mL LPS and IFN-γ (100 ng/mL) in the presence or absence of test compounds (0-30 uM). Following incubation for 20 hours, cells were spun down and supernatant collected. The supernatant was analyzed via Luminex for the presence of TNF-α and MCP-1.

[5] = system: rat chronic constriction injury (CCI) model of neuropathic pain; experiment: Rat chronic constriction injury (CCI) model of neuropathic pain; type: in vivo; settings: for IP CCI efficacy (Change in grams): dose not given, 50% paw withdrawal threshold, von Frey
[6] = system: at least one of JNK 3 or JNK 2 and at least one of PDE 10 or PDE 4; experiment: Dual inhibition (phosphodiesterase and JNK); type: biochemical, human; settings: IC50 JNK 3 or JNK 2 less than about 5.00 μM and PDE 10 or PDE 4 less than about 20.0 or 30.0 μM
Method in brief: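 JNK2/JNK3: full-length human enzyme with 3 uM ATF2 and 10 uM ATP for 1 h, ATP depletion by luciferase luminescence. PDE4B catalytic domain with 5 uM cAMP, or PDE10A1 with 1 uM cAMP, 1 h; AMP converted to ATP for luminescence. Compounds 0–30 uM; IC50 by nonlinear regression.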

[7] = system: phosphorylated c-Jun (serine-73); experiment: Phosphorylated c-JUN (6-OHDA), SH-SY5Y; type: cell-based; settings: Homo sapiens, 50 uM 6-hydroxydopamine, 1.5 hours, read-out: p-cJun 6-OHDA SH-SY5Y (EC50 in μM)
Method in brief: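 SH-SY5Y cells challenged with 50 uM 6-hydroxydopamine with or without compound (0-30 uM) for 1.5 hours, then paraformaldehyde-fixed. Phospho-c-Jun (Ser73) quantified by cell-based ELISA.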

[8] = Amyloid Beta peptide 30 uM, 3 hours, read-out: p-cJun Abeta SH-SY5Y (EC50 in μM)
[9] = read-out: MCP-1 BV-2 (EC50 in μM)
[10] = read-out: TNF-a BV-2 (EC50 in μM)
[11] = read-out: p-cJun SH-SY5Y (EC50 in μM), no Abeta

T2 sequence (Q9Y233 1-779 isoform Q9Y233-1): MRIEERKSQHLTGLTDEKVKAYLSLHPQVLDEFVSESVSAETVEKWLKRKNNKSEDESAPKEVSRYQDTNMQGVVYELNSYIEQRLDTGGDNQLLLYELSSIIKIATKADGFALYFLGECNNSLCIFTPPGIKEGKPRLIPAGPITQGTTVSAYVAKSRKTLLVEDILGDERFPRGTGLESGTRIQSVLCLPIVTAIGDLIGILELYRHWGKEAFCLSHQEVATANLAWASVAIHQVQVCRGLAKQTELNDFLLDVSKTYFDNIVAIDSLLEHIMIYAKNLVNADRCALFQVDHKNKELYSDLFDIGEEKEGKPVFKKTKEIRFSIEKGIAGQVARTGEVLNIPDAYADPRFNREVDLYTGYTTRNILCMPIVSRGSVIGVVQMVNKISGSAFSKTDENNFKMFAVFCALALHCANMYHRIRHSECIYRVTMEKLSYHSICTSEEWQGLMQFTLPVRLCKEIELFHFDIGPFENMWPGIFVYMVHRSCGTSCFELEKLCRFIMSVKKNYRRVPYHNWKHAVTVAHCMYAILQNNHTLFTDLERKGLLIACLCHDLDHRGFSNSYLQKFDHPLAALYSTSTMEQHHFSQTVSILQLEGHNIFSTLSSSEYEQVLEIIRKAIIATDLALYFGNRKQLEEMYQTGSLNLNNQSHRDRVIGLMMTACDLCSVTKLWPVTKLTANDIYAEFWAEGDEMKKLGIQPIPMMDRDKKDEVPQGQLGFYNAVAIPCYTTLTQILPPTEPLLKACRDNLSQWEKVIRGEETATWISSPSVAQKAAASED
T1 sequence (Q07343 330-659 limits assumed): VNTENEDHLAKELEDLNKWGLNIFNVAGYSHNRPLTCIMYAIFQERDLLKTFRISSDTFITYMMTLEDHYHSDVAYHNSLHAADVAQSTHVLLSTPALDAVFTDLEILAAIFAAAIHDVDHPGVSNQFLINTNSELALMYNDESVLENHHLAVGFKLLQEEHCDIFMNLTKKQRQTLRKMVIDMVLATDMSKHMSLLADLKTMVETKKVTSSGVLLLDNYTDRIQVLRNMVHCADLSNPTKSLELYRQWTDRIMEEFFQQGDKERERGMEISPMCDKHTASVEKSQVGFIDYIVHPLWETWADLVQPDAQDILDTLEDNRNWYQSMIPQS

SMILES	PDE-4 inhibition (in words) [1]	IC50 [1]	EC50 [2, 8]	IC50 [3]	PDE-10 inhibition (in words) [3]	EC50 [4, 9]	EC50 [4, 10]	inhibiting glial cell activation (TNF-α and/or MCP-1) [4]	IP CCI efficacy (Change in grams) [5]	PO CCI efficacy (Change in grams) ([5]; 75 mg/kg)	dual inhibition (phosphodiesterase and JNK) [6]	EC50 [7]	EC50 [2, 11]	PO CCI efficacy (Change in grams) ([5]; 30 mg/kg)	reversal of allodynia ([5]; oral dosing, multi-day, 24 hr time-points, FIG. 6)
CC(C)Nc1nccc(-c2c(C(C)C)nn3ccccc23)n1 [AV1137, N-isopropyl-4-(2-isopropylpyrazolo[1,5-a]pyridin-3-yl)pyrimidin-2-amine]	particularly effective	4.3 µM	> 30 µM	9.9 µM	particularly effective	1.1 µM	1.2 µM	Particularly effective	3.26 grams	0.94 (75 mg/kg) grams	effective dual inhibitors	6.1 µM	–	–	–
CC(C)Nc1nccc(-c2cnn3ccccc23)n1 [AV1164, N-isopropyl-4-(pyrazolo[1,5-a]pyridin-3-yl)pyrimidin-2-amine]	particularly effective	5.9 µM	2.9 µM	5.8 µM	particularly effective	4.9 µM	0.4 µM	Particularly effective	1.56 grams	–	effective dual inhibitors	3.1 µM	1.1 µM	–	–
c1ccn2ncc(-c3ccnc(NC4CCCC4)n3)c2c1 [AV1165, N-cyclopentyl-4-(pyrazolo[1,5-a]pyridin-3-yl)pyrimidin-2-amine]	–	14 µM	–	7.5 µM	particularly effective	0.6 µM	0.2 µM	Particularly effective	0.44 grams	–	effective dual inhibitors	1.1 µM	7.6 µM	–	–
CC(C)Nc1nccc(-c2c(C3CC3)nn3ccccc23)n1 [AV1173, 4-(2-cyclopropylpyrazolo[1,5-a]pyridin-3-yl)-N-isopropylpyrimidin-2-amine]	particularly effective	1.1 µM	–	7.4 µM	particularly effective	0.7 µM	1.4 µM	Particularly effective	2.5 grams	–	effective dual inhibitors	7.7 µM	–	1.6 (30 mg/kg) grams	capable of reversing allodynia and sustaining the efficacy overnight
